Test results published in ChEMBL document CHEMBL3739306, “Enantiomeric resolution of [(2,2-diphenyl-1,3-dioxolan-4-yl)methyl](2-phenoxyethyl)amine, a potent 1and 5-HT1Areceptor ligand: an in vitro and computational study” (Medchemcomm, 2015).

Experiments:
Rattus norvegicus [1] = organism: Rattus norvegicus; assay: Selectivity ratio of pA2 for alpha1D adrenoceptor in Wistar rat thoracic aorta to pKb for alpha1B adrenoceptor in Wistar rat spleen
CHO [2] = assay: Selectivity index, ratio of pKi for human recombinant alpha1D adrenoceptor to pKi for human recombinant alpha1B adrenoceptor expressed in CHO cell membrane; format: cell-based
[3] = target: T1, Alpha-1D adrenergic receptor (Homo sapiens, UniProt P25100); assay: Displacement of [3H]prazosin from human recombinant alpha1D adrenoceptor expressed in CHO cell membrane after 30 mins by liquid scintillation counting; format: cell membranes
T1 sequence (P25100 whole entry): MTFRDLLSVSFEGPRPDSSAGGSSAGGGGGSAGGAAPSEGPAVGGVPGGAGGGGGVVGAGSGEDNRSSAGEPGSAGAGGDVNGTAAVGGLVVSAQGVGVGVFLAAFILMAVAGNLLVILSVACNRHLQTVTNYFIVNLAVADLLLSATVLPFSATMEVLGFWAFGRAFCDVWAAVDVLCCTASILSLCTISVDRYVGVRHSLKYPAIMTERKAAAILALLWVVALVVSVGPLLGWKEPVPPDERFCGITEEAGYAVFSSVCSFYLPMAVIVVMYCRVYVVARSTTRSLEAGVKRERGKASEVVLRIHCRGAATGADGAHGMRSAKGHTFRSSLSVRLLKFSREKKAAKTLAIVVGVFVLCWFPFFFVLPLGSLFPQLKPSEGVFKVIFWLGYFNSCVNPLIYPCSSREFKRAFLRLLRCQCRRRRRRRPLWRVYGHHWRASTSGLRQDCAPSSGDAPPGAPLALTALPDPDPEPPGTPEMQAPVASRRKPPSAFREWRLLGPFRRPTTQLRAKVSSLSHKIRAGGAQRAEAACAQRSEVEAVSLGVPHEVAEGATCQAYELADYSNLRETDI

Rattus norvegicus [4] = organism: Rattus norvegicus; assay: Selectivity ratio of pA2 for alpha1D adrenoceptor in Wistar rat thoracic aorta to pKb for alpha1A adrenoceptor in Wistar rat vas deferans
[5] = target: T2, Alpha-1B adrenergic receptor (Rattus norvegicus) (UniProt P15823); assay: Antagonist activity at alpha1B adrenoceptor in Wistar rat spleen assessed as phenylephrine-induced contractions after 30 mins
T2 sequence (whole entry): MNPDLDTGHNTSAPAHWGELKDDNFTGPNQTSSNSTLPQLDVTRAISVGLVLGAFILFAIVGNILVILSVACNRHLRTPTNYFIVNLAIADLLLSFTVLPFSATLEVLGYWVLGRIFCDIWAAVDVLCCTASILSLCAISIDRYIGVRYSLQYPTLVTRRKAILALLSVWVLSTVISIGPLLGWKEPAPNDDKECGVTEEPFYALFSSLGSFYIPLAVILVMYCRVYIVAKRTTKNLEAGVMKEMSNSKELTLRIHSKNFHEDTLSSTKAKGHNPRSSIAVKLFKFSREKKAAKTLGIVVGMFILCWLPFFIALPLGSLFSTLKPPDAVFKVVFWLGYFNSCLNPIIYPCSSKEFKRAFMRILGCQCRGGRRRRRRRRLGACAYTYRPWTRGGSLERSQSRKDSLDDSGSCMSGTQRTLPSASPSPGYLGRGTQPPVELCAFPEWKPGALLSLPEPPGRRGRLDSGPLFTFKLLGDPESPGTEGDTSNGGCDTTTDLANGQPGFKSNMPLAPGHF

CHO [6] = assay: Selectivity index, ratio of pKi for human recombinant alpha1D adrenoceptor to pKi for human recombinant alpha1A adrenoceptor expressed in CHO cell membrane; format: cell-based
[7] = target: T3, Alpha-1D adrenergic receptor (Rattus norvegicus, UniProt P23944); assay: Antagonist activity at alpha1D adrenoceptor in Wistar rat thoracic aorta assessed as noradrenaline-induced contractions after 30 mins; format: tissue-based; settings: read-out: pA2 (converted)
T3 sequence (P23944 whole entry): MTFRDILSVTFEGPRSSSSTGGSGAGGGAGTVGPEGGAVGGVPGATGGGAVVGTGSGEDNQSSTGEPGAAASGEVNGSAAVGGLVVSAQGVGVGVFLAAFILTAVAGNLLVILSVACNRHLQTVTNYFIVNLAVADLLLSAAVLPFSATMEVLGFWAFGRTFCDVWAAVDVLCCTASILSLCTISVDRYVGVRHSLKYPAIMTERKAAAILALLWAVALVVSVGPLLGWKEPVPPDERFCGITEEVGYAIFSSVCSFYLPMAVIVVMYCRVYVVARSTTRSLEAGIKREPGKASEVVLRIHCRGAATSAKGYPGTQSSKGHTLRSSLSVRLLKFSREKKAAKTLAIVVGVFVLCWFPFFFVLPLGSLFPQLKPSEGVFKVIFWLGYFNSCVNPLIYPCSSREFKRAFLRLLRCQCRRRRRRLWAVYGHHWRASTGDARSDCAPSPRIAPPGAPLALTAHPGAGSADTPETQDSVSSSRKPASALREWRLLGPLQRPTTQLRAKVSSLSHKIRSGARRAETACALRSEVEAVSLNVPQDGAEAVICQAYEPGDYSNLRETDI

CHO [8] = assay: Selectivity index, ratio of pKi for human recombinant alpha1A adrenoceptor to pKi for human recombinant alpha1B adrenoceptor expressed in CHO cell membrane; format: cell-based
CHO [9] = assay: Selectivity index, ratio of pKi for human recombinant 5-HT1A receptor expressed in HeLa cell membrane to pKi for human recombinant alpha1D adrenoceptor expressed in CHO cell membrane; format: cell-based
Rattus norvegicus [10] = organism: Rattus norvegicus; assay: Selectivity ratio of pKb for alpha1A adrenoceptor in Wistar rat vas deferans to pKb for alpha1B adrenoceptor in Wistar rat spleen
[11] = target: T4, Alpha-1A adrenergic receptor (Rattus norvegicus) (UniProt P43140); assay: Antagonist activity at alpha1A adrenoceptor in Wistar rat vas deferans assessed as noradrenaline-induced contractions after 30 mins
T4 sequence (whole entry): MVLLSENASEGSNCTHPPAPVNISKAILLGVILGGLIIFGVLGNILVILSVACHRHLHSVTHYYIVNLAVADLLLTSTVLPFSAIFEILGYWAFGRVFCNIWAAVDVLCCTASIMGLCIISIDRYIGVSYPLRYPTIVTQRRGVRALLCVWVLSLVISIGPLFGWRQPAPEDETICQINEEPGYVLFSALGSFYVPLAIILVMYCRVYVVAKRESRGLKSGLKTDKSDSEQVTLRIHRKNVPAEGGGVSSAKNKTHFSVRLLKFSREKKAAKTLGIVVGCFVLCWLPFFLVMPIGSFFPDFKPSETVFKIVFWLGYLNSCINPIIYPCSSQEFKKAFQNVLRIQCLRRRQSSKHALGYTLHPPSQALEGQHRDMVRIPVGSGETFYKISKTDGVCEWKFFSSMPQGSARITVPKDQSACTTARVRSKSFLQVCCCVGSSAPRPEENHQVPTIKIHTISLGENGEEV

[12] = target: T5, 5-hydroxytryptamine receptor 1A (Homo sapiens) (UniProt P08908); assay: Agonist activity at human recombinant 5-HT1A receptor expressed in HeLa cell membrane after 20 mins by [35S]GTPgammaS binding assay; format: functional, cell membranes
T5 sequence (whole entry): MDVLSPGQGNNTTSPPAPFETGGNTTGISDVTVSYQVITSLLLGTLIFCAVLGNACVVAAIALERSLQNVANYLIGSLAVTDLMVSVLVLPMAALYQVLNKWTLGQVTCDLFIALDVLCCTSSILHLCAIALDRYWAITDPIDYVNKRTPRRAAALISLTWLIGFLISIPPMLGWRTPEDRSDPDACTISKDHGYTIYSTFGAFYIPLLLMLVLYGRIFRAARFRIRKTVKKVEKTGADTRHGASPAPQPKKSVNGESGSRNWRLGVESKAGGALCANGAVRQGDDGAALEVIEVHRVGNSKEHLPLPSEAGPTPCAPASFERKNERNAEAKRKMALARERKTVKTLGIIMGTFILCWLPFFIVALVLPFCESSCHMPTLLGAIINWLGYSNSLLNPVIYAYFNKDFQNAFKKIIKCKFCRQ

[13] = target: T6, Alpha-1A adrenergic receptor (Homo sapiens, UniProt P35348); assay: Displacement of [3H]prazosin from human recombinant alpha1A adrenoceptor expressed in CHO cell membrane after 30 mins by liquid scintillation counting; format: cell membranes
T6 sequence (P35348 whole entry): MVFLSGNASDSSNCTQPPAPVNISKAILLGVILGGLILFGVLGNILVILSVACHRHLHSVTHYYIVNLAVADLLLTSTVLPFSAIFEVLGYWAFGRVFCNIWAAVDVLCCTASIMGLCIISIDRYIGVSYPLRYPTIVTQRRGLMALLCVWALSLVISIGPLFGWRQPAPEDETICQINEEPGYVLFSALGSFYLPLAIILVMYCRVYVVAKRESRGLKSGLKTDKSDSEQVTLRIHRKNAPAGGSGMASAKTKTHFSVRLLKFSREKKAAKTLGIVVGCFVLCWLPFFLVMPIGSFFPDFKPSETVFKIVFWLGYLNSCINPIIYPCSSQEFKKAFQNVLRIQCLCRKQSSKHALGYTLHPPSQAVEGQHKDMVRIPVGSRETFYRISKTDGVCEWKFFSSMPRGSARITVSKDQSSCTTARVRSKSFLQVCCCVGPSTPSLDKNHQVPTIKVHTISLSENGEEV

[14] = target: T7, Alpha-1B adrenergic receptor (Homo sapiens, UniProt P35368); assay: Displacement of [3H]prazosin from human recombinant alpha1B adrenoceptor expressed in CHO cell membrane after 30 mins by liquid scintillation counting; format: cell membranes
T7 sequence (P35368 whole entry): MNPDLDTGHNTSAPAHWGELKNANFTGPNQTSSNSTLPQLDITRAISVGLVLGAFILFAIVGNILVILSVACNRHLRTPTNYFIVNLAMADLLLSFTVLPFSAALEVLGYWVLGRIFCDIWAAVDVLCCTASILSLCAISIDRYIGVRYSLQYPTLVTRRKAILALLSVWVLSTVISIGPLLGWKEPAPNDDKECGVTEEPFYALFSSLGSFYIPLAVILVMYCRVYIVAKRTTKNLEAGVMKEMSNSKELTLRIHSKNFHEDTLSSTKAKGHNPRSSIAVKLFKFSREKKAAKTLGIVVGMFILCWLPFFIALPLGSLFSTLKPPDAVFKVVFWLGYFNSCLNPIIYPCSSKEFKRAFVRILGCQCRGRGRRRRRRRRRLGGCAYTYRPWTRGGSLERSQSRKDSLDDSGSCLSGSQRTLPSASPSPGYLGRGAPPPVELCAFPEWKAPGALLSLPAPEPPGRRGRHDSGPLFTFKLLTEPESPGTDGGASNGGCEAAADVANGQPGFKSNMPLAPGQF

[15] = target: T8, 5-hydroxytryptamine receptor 1A (Homo sapiens, UniProt P08908); assay: Displacement of [3H]8-OH-DPAT from human recombinant 5-HT1A receptor expressed in HeLa cell membrane after 30 mins by liquid scintillation counting; format: cell membranes
T8 sequence (P08908 whole entry): T5 sequence (whole entry)

Structure (SMILES)	Ratio (Rattus norvegicus [1])	Ratio pKi (CHO [2])	Ki [3] [nM]	Ratio (Rattus norvegicus [4])	pKb [5]	Ratio pKi (CHO [6])	Kb [7] [nM]	Ratio pKi (CHO [8])	Ratio pKi (CHO [9])	Ratio (Rattus norvegicus [10])	pKb [11]	pD2 [12]	Ki [13] [nM]	Ki [14] [nM]	Ki [15] [nM]	Emax [12] [%]
c1ccc(OCCNCC2COC(c3ccccc3)(c3ccccc3)O2)cc1 (racemic)	219	5	11.7	110	5.86	3	6.31	2	3	0.5	6.16	8.8				
c1ccc(OCCNC[C@H]2COC(c3ccccc3)(c3ccccc3)O2)cc1	30	8	14.5	26	6.14	9	24.5	1	4	1	6.2	6.85	126	115	3.8	50
c1ccc(OCCNC[C@@H]2COC(c3ccccc3)(c3ccccc3)O2)cc1	34	3	22.9	23	6.51	1	5.13	3	8	1	6.67	7.45	30.2	79.4	3.02	65.3
